Assays:
[1] = biological target: T1, relaxin binding sites in THP-1 cells (Homo sapiens, UniProt Q9HBX9); experiment: THP-1 cell binding assay (competition for 33P-labeled H2 relaxin (B33))
T1 construct: induce cAMP production in the human monocytic cell line (THP-1); endogenous in cells; host or cells: THP-1 (human monocytic cell line)
T1 sequence (Q9HBX9 1-757): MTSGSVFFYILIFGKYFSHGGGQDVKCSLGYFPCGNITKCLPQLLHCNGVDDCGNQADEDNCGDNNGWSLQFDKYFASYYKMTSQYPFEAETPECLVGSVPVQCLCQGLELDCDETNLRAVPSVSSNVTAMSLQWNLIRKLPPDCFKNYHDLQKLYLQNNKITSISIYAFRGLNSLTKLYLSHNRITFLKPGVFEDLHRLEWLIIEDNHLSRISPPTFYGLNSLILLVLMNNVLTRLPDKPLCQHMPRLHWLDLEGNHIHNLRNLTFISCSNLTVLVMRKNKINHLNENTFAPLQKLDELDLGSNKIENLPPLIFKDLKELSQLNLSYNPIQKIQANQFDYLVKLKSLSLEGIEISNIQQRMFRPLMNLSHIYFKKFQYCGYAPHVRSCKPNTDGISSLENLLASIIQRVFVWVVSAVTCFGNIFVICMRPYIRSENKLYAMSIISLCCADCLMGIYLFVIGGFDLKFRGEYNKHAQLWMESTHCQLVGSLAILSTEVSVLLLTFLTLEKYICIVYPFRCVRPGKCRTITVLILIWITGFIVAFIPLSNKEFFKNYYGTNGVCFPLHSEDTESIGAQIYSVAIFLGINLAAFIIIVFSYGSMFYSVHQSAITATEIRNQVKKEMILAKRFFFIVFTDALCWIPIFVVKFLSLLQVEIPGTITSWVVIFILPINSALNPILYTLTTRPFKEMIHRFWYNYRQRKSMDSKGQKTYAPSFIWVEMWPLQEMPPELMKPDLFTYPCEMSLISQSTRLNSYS
Method: THP-1 cells were spun down and resuspended in binding buffer (20 mM HEPES, 50 mM NaCl, 1.5 mM CaCl2, 1% BSA, 0.1 mg/ml lysine, 0.01% […], pH 7.5) (Parsell et al (1996) J. Biol. Chem. 271, 27936-27941) to give 2×10^6 cells/well in a 96-well plate. The cells were incubated in binding buffer with ^33P-labeled H2 (B33) relaxin (100 pM: labeled as previously described (Tan et al (1999) Br. J. Pharmacol. 127, 91-98) at 25° C. for 90 min in the absence or presence of increasing concentrations of unlabeled H1, H2 and H3 relaxin ([…]). Non-specific binding was defined with H2 relaxin (1 μM). Cells were harvested using a Packard 96-well plate cell harvester and Whatman GF/C glass fibre filters treated with 0.5% polyethylenimine. The filters were washed three times with modified binding buffer (20 mM HEPES, 50 mM NaCl, 1.5 mM CaCl2), dried in a 37° C. oven, and the radioactivity counted by liquid scintillation spectrometry (TopCount™, Canberra Packard, Australia).

[2] = test system: goat anti-H2 relaxin antibody; experiment: Antibody crossreactivity radioimmunoassay (displacement of 125I-labeled H2 relaxin); format: binding; settings: FIG. 4
Method: The ability of well characterized human relaxin antibodies to recognize H3 relaxin was tested in comparison to H1 and H2 relaxins by radioimmunoassay. Briefly, goat anti-H2 relaxin (Lucas et al (1989) J. Endocrinol. 120, 449-57) was coated onto 96 well ELISA plates (Disposable Products, Adelaide, Australia) at a dilution of 1:1000 with 0.05M sodium carbonate buffer at 4° C. overnight. After washing twice with PBS-T (phosphate buffered saline; 0.05% Tween 20, pH 7.4) dilutions of human relaxin peptides dissolved in 50 μl of assay buffer (1% BSA in PBS-T) were added together with 50,000 cpm ^125I-labeled relaxin, in 50 μl of assay buffer. H2 relaxin was ^125I-labeled and purified by HPLC (Palejwala et al (1998) Endocrinology 139, 1208-1212). After an overnight incubation at 4° C. the plates were washed twice with PBS-T. The antibody-bound-^125I-labeled H2 relaxin was collected by the addition of 1M NaOH and decanted into tubes for counting on a Packard 5010 gamma counter (Canberra Packard). Experiments were performed at least twice and similar results obtained. Data was plotted as the mean±SEM from one representative experiment performed in triplicate and plotted using PRISM.

[3] = biological target: T2, human relaxin receptors (THP-1 cells) (Homo sapiens, UniProt Q9HBX9); experiment: THP-1 cell bioassay (cAMP production); format: cell-based; settings: doses up to 1 μM
T2 construct: induce cAMP production in the human monocytic cell line (THP-1); endogenous in cells; host or cells: THP-1 (human monocytic cell line)
T2 sequence (Q9HBX9 1-757): T1 sequence (Q9HBX9 1-757)
Method: Biol. Chem. 271, 27936-27941), with the following modifications; […] The plate was then briefly centrifuged, the media removed and the cells resuspended in lysis buffer. cAMP levels were measured in the lysates using the cAMP Biotrak EIA system (Amersham International, Aylesbury, UK). […] Data represent the mean±SEM of three experiments performed in quadruplicate, and are plotted using PRISM (Graphpad Inc., San Diego, Calif.).

Row | Compound | Ki [1] [nM] | ability to displace 125I-labeled H2 relaxin binding to the anti-H2 relaxin antibody [2] | ability to stimulate cAMP responses [3]
1 | CC[C@H](C)[C@@H]1NC(=O)[C@H](Cc2ccccc2)NC(=O)[C@H](CCC(=O)O)NC(=O)[C@H](CCCNC(=N)N)NC(=O)CNC(=O)[C@@H](NC(=O)[C@H](CC(C)C)NC(=O)[C@H](CCCNC(=N)N)NC(=O)[C@@H](NC(=O)CNC(=O)[C@H](Cc2ccc(O)cc2)NC(=O)[C@@H]2CCCN2C(=O)[C@H](C)NC(=O)[C@H](C)NC(=O)[C@@H](N)CCCNC(=N)N)C(C)C)CSSC[C@@H]2NC(=O)[C@@H](NC(=O)[C@H](CO)NC(=O)[C@H](CO)NC(=O)[C@H](CO)NC(=O)[C@H](CC(C)C)NC(=O)CNC(=O)[C@H](C)NC(=O)[C@H](CC(C)C)NC(=O)[C@@H](NC(=O)[C@@H](N)CC(=O)O)C(C)C)CSSC[C@H](NC(=O)CNC(=O)[C@H](Cc3c[nH]c4ccccc34)NC(=O)[C@H](CCCCN)NC2=O)C(=O)N[C@@H](CO)C(=O)N[C@@H](CCCCN)C(=O)N[C@@H](CO)C(=O)N[C@@H](CCC(=O)O)C(=O)N[C@@H]([C@@H](C)CC)C(=O)N[C@@H](CO)C(=O)N[C@@H](CO)C(=O)N[C@@H](CC(C)C)C(=O)N[C@H](C(N)=O)CSSC[C@@H](C(=O)NCC(=O)NCC(=O)N[C@@H](CO)C(=O)N[C@@H](CCCNC(=N)N)C(=O)N[C@@H](Cc2c[nH]c3ccccc23)C(N)=O)NC(=O)[C@H]([C@@H](C)O)NC(=O)[C@H](Cc2ccccc2)NC(=O)[C@H]([C@@H](C)CC)NC(=O)[C@H](C(C)C)NC(=O)[C@H](C)NC(=O)[C@H](CCCNC(=N)N)NC1=O [H3 relaxin, Human Relaxin H3 [hR]x-3 A (1-24) Amide-B (1-27) Amide] | 31.6 | poor cross reactivity | 
2 | H2 relaxin: recombinant H2 relaxin, a gift from the Connetics Corporation |  | able to displace | 
3 | hINSL3: Human INSL3 synthesized using the same methodology used for ovine INSL3 (chain 1 AAATNPARYCCLSGCTQQDLLTLCPY; chain 2 PTPEMREKLCGHHFVRALVRVCGGPRWSTEA) |  |  | inability
4 | bovine insulin [bINSL] |  |  | inability
